Patent US11419868B2, “Low dose product and method for treating diarrhea” (MAREGADE RX, LLC, priority 2016, dated 2022)

Key:
[1] = tested on: TNBS-induced, post-inflammatory colonic hypersensitivity; experiment: TNBS-induced post-inflammatory colonic hypersensitivity model, VMR to CRD; details: 0.25 mg/kg cetirizine, 0.6 mg/kg famotidine, each alone, oral twice daily 3.5 days; FIG. 8
rat colonic mucosa [2] = experiment: Forskolin-induced short-circuit current across rat colonic mucosa; format: cell-based; details: 6 μM famotidine, 3 μM cetirizine, each alone; FIG. 4
Text: (§1) Data are presented as mean±standard error of mean (SEM). […] 2014 December; 63(12):1873-82).
(§2) These secretogogues were selected because PGE2 mediates the occurrence of watery diarrhea in response to a low-grade inflammatory insult and forakolin because it selectively activates all forms of cAMP-mediated intestinal secretion.

rat colonic mucosa [3] = experiment: Electrical field stimulation-induced short-circuit current across rat colonic mucosa in Ussing chambers; format: cell-based; details: individually or combined; for effect on EFS-induced ΔISC: famotidine 10 μM, cetirizine 5 μM, EFS 16 Hz, FIG. 1; for inhibition of EFS-induced ΔISC: famotidine 200 μM, cetirizine 100 μM, FIG. 2
Text: as §1

colonic hypersensitivity = experiment: Three rat models of colonic hypersensitivity, overall statement and conversion to human equivalent doses; details: 0.25 mg/kg cetirizine, 0.6 mg/kg famotidine, two times per day p.o.
rat colonic mucosa [4] = experiment: PGE2-induced short-circuit current across rat colonic mucosa; format: cell-based; details: 6 μM famotidine, 3 μM cetirizine, each alone; FIG. 3
Text: as §1, §2

[5] = tested on: stress-induced visceral hypersensitivity; experiment: Chronic water avoidance stress (WAS) model, visceromotor response to colorectal distension; details: oral twice daily 3.5 days
[6] = tested on: acetic acid-induced colonic hypersensitivity; details: famotidine 0.6 mg/kg, cetirizine 0.25 mg/kg, each alone, oral twice daily 3.5 days; FIG. 7
[7] = famotidine 0.6 mg/kg, cetirizine 0.25 mg/kg, each alone, FIG. 6
[8] = lowest doses: famotidine 0.3 mg/kg, cetirizine 0.15 mg/kg, alone or in combination, FIG. 5

Row | Compound | effect on TNBS-induced colonic hypersensitivity [1] | effect on forskolin-induced changes in ISC (rat colonic mucosa [2]) | effect on EFS-induced ΔISC (rat colonic mucosa [3]) | inhibition of EFS-induced ΔISC (rat colonic mucosa [3]) | inhibitory effect on colonic hypersensitivity in all three rat models (colonic hypersensitivity) | effect on PGE2-induced changes in ISC (rat colonic mucosa [4]) | effect on colonic hypersensitivity [5, 7] | effect on colonic hypersensitivity [5, 8] | inhibition of acetic acid-induced colonic hypersensitivity [6]
1 | O=C(O)COCCN1CCN(C(c2ccccc2)c2ccc(Cl)cc2)CC1 (centres unmarked) [cetirizine] | Neither cetirizine alone nor famotidine alone exhibited any effect | only minimally effective | had no effect | modest changes in ISC | did not result in sufficient inhibition | neither drug alone was effective | neither drug alone had an effect | had no effect on colonic hypersensitivity | 
2 | NC(N)=Nc1nc(CSCCC(N)=NS(N)(=O)=O)cs1 [famotidine] | Neither cetirizine alone nor famotidine alone exhibited any effect | only minimally effective | had no effect | modest changes in ISC | did not result in sufficient inhibition | neither drug alone was effective | neither drug alone had an effect | had no effect on colonic hypersensitivity | not either drug alone, induced a significant inhibition
